Legend:
[1] = test system: ovulated cumulus-oocyte complexes; test: In-vivo action on post-ovulatory in-vitro fertilization; set-up: species or system mice (strain: B6D2F1); conditions: mice
Excerpt: 4.3 In-Vivo Action on Post-Ovulatory In-Vitro Fertilization: Substances can exert an influence on fertility by decreasing the fertilizability of oocytes or cumulus-oocyte complexes. In order to study such effects, substances can be administered in vivo and subjected to in vitro fertilization after ovulation of cumulus-oocyte complexes has taken place. The in-vitro fertilization rate, where no test substance is any longer present, allows conclusions as to the in-vivo effects of the test substances. Immature female mice (strain: B6D2F1, Charles River, Suelzfeld, age: 19-25 days) were kept in Macrolon cages in rooms with controlled illumination (12 hrs darkness: 12 hrs light), fed with a standard diet and provided with drinking water ad libitum. The mice were primed with PMSG (pregnant mare serum gonadotropin) (10 IU/animal i.p.). After 48 hours, a stimulus triggering ovulation was created in the animals by one administration of 10 IU/animal i.p. (hCG, human chorionic gonadotropin). The test substances were dissolved in benzyl benzoate/castor oil (1+4 v/v) and administered in a volume of 0.1 ml s.c. 1 hour before hCG (n=5 animals per group). Fourteen hours after hCG administration, the animals were killed. Ovulated oocytes and cumulus-oocyte complexes were obtained from the bursa ovarii and/or oviduct and subjected to in-vitro fertilization, wherein for the fertilization a sperm count of 40000 sperms/0.5 ml was used for 1 hour. Twenty-four hours after the incubation with the sperms, the number of fertilized oocytes is established and the percentage fertilization rate determined.

[2] = biological target: EP4 subtype of the human PGE2 receptor (Homo sapiens, UniProt P35408); test: cAMP antagonism test on the human EP4 receptor (HTRF cAMP detection); assay type: cell-based; conditions: selectivity towards hEP4, IC50 measured by cAMP antagonism test
EP4 subtype of the human PGE2 receptor, sequence (P35408 whole entry): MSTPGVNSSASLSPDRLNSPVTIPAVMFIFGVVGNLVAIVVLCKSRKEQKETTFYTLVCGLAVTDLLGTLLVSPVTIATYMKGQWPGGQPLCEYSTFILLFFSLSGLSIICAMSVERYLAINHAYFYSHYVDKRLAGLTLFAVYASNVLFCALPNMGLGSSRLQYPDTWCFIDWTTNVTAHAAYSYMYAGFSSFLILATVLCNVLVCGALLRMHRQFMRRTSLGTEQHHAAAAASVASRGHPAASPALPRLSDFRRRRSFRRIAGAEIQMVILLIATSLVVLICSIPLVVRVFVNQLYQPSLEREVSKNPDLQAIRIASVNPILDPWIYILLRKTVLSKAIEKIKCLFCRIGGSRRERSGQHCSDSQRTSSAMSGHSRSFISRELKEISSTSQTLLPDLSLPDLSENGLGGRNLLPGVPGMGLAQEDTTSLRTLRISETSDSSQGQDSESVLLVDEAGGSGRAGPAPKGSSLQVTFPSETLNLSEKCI
Method in brief: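 Cells expressing human EP4 preincubated 20 min at RT with compound (0.8 nM–16.5 μM), then stimulated with PGE2 (0.3 nM in 3× solution, with IBMX) 60 min at RT. After lysis, cAMP measured by HTRF competition (665/620 nm ratio); antagonism seen as rise in FRET signal.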

[3] = test system: female cynomolgus monkeys (Macaca Fascicularis); test: In-vivo action on fertility in non-human primates (mating study); conditions: 6 months, 10 mg/kg (Example 17 once daily, Example 56 twice daily)
Procedure: 4.4 In-Vivo Action on Fertility in Non-Human Primates (Cynomolgus):
In order to study the effect of substances on fertility, mating studies can be performed in monkeys (Jensen et al. Contraception 81 (2010) 165-171). For this, the test substances are administered to female cynomolgus monkeys (Macaca Fascicularis) which are being kept in groups, then the animals are mated with a male animal. Matings are checked for by sperm detection in daily vaginal smears. Pregnancies resulting therefrom are identified by hormone determinations and ultrasound examinations. Through the changes in the serum oestradiol concentrations during the cycle, (rise before the midcycle LH peak), the fertile phase within a cycle of the individual animals can be determined Matings in this fertile period are described as “timed matings” (matings in the fertile phase). Apart from the absolute number of pregnancies occurring, the effect on the fertility can also be expressed as pregnancies per “timed matings”.
To test the action of EP2 receptor antagonists on fertility in monkeys, Examples 17 and 56 according to the invention were administered over 6 months, dissolved in 0.5 ml castor oil. Example 17 was administered once daily at a dosage of 10 mg/kg (n=10 animals), while Example 56 was administered twice daily at a dosage of 10 mg/kg (n=9 animals). Only the vehicle was administered to a control group (n=10 animals). In the first month of the treatment, no male animal was placed with the female animals. After this, female and male animals were kept together over 5 months, with detection of pregnancies and cycle monitoring.

COCCNC(=O)c1ccc2nn(CC3CCN(C(=O)c4ccc(Oc5ccc(C(F)(F)F)cc5)cc4)CC3)cc2c1C [Example 17, N-(2-methoxyethyl)-4-methyl-2-[(1-{4-[4-(trifluoromethyl)-phenoxy]benzoyl}-piperidin-4-yl)-methyl]-2H-indazol-5-carboxamide]
% fertilization with 1 mg/kg ([1]; 1 mg/kg s.c. 1 hour before hCG, in-vitro fertilization rate): 20 ± 10%
% fertilization with 5 mg/kg ([1]; 5 mg/kg s.c. 1 hour before hCG, in-vitro fertilization rate): 9 ± 1%
% fertilization with 10 mg/kg ([1]; 10 mg/kg s.c. 1 hour before hCG, in-vitro fertilization rate): 8 ± 4%
influence on the fertilizability of ovulated cumulus-oocyte complexes ([1]; in-vivo administration): dose-dependent influence
Selectivity hEP2/hEP4 [2]: xxx (xxx > 100)
% Pregnancies/"timed mating" [3]: 6%
Pregnancies [3]: 3

COCCNC(=O)c1ccc2nn(CC3CCN(C(=O)c4ccc(-c5ccc(F)cc5)cc4F)CC3)cc2c1C [Example 42, 2-({1-[(3,4′-difluoro-biphenyl-4-yl)-carbonyl]piperidin-4-yl}methyl)-N-(2-methoxyethyl)-4-methyl-2H-indazol-5-carboxamide]
Selectivity hEP2/hEP4 [2]: xxx (xxx > 100)

COCCNC(=O)c1ccc2nn(CC3CN(C(=O)c4ccc(Cl)cc4)C3)cc2c1C [Example 117, 2-{[1-(4-chlorobenzoyl)azetidin-3-yl]methyl}-N-(2-methoxyethyl)-4-methyl-2H-indazol-5-carboxamide]
Selectivity hEP2/hEP4 [2]: xxx (xxx > 100)

Cc1c(C(=O)NCC(F)(F)F)ccc2nn(CC3CCN(C(=O)c4ccc(Oc5ccc(F)cc5)cc4)CC3)cc12 [Example 283, 2-({1-[4-(4-fluorophenoxy)benzoyl]piperidin-4-yl}methyl)-4-methyl-N-(2,2,2-trifluoroethyl)-2H-indazol-5-carboxamide]
Selectivity hEP2/hEP4 [2]: xxx (xxx > 100)

Reference: patent US9062041B2 (Bayer Intellectual Property GmbH, priority 2011, dated 2015)
